Measured values from patent publication US9821070B2 (OPKO Biologics Ltd., priority 2012, dated 2017).

Legend:
GLP-1 receptor = GLP-1 receptor (Homo sapiens, UniProt P43220); conditions: cAMP Hunter CHO-K1 GLP1R
Description: Cells cAMP concentrations were quantified by HTRF assay (Cisbio 62AM4PEB) and EC50 parameter was analyzed by PRISM software. The cAMP Hunter™ CHO-K1 GLP1R secretes cAMP upon binding of the ligand to the receptor. […] Ligands were diluted in diluent contains IBMX and were added in duplicate to the culture wells for 30 min at 37° C. with 5% CO2. […] The dose dependent curves were established and the binding affinities (EC50) of various ligands were calculated using PRISM software by applying the best fit dose response model (Four parameters).

[1] = Obese (ob/ob) mouse model, Study 2 (MOD-6031 chronic pharmacology); format: in vivo, male ob/ob mice; conditions: OXM 6000 nmoles/kg bid sc for 32 days
Description: Body weight, food and water intake were recorded daily. […] Body weight, food and water intake were measured daily.
Oral glucose tolerant test (OGTT) studies were performed on days 2 and day 30 (FIGS. 10 and 11, respectively).

Chain of GLP-1 receptor (P43220 24-463): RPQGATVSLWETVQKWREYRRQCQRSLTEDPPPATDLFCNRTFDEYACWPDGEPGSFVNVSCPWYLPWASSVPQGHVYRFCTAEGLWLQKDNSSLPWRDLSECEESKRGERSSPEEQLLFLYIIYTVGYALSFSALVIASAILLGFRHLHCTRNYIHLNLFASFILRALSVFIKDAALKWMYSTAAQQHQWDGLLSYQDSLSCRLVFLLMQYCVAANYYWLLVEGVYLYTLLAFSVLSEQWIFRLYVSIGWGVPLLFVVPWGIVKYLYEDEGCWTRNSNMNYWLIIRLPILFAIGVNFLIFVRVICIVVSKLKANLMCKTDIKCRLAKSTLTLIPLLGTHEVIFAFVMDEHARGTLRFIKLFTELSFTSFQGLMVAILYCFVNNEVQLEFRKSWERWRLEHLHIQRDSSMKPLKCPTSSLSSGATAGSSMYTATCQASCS

Q: For Oxyntomodulin [OXM], which “higher GLP-1 receptor binding activation compared to the heterogeneous PEG30-FMS-OXM” value (GLP-1 receptor) is on record?
A: 5.9 fold

Q: And the “body weight reduction over the study” value [1]?
A: 10.3%
